# Measurements reported in EP0326331B1, “Substituted quinolines and cinnolines” (Dow AgroSciences LLC, priority 1988, dated 1989).
# Legend:
# Format in all cases: in vivo
# corn rootworm = experiment: Mite/insect screen, CRW; details: percent mortality, read-out: CRW RESULTS %; for mortality at 12 ppm: CRW RATE 12.00 PPM; for mortality at 24 ppm: CRW RATE 24.00 PPM
# Method in brief: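 Corn rootworm mortality (%) was evaluated following standard exposure times. Test material was emulsified by dissolution in acetone/alcohol (1:1) containing sulfonate/nonionic emulsifier blends TOXIMUL R (23 g/L) and TOXIMUL S (13 g/L), and water-diluted to the indicated doses.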
# [1] = test system: Botrytis cinerea (gray mold); experiment: Test 1 greenhouse foliar spray screen, gray mold on grape berries; details: disease control rating, spray on grape berries, 400 ppm (+++ at 100 ppm)
# [2] = test system: Venturia inaequalis (apple scab); experiment: Test 1 greenhouse foliar spray screen, apple scab on apple seedling; details: disease control rating, foliar spray on apple seedling, 400 ppm (+++ at 100 ppm)
# [3] = test system: Erysiphe graminis tritici (powdery mildew); experiment: Test 1 greenhouse foliar spray screen, powdery mildew on wheat; details: disease control rating, foliar spray on wheat, 400 ppm (+++ at 100 ppm)
# [4] = test system: Cercospora beticola (leaf spot); experiment: Test 1 greenhouse foliar spray screen, leaf spot on sugar beet; details: disease control rating, foliar spray on sugar beet, 400 ppm (+++ at 100 ppm)
# [5] = test system: Pseudoperonospora cubensis (downy mildew); experiment: Test 1 greenhouse foliar spray screen, downy mildew on squash; details: disease control rating, foliar spray on squash, 400 ppm (+++ at 100 ppm)
# [6] = test system: Pyricularia oryzae (rice blast); experiment: whole plant or invertebrate; details: disease control rating, foliar spray on rice, 400 ppm (+++ at 100 ppm)
# [7] = test system: Septoria tritici (leaf blotch); experiment: Test 1 greenhouse foliar spray screen, leaf blotch on wheat; details: disease control rating, foliar spray on wheat, 400 ppm (+++ at 100 ppm)
# [8] = test system: Puccinia recondita tritici (leaf rust); experiment: Test 1 greenhouse foliar spray screen, leaf rust on wheat; details: disease control rating, foliar spray on wheat, 400 ppm (+++ at 100 ppm)
# [9] = test system: melon aphids (Aphis gossypii Glover); experiment: Mite/insect screen, MA; details: Aphis gossypii, percent mortality, SAW, read-out: MA RESULTS %; for mortality at 200 ppm: SM & MA RATE 200 PPM; for mortality at 400 ppm: SM & MA RATE 400 PPM
# Method in brief: (§1)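 Percent mortality was scored after standard exposure periods, following spraying of leaves to runoff (both surfaces, 10 psi, 1 h drying) with water dilutions of compound in emulsifier-containing acetone/alcohol (50:50). Armyworms received excised treated leaves in dishes.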
# [10] = test system: Twospotted spider mites (Tetranychus urticae Koch); experiment: Mite/insect screen, SM; details: Tetranychus urticae, percent mortality, SAW, read-out: SM RESULTS %; for mortality at 200 ppm: SM & MA RATE 200 PPM; for mortality at 400 ppm: SM & MA RATE 400 PPM
# Method in brief: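 Read-out: percent mortality after standard exposure periods. Test solutions were water dilutions of compound dissolved in acetone/alcohol (50:50) with emulsifier blends; leaves were sprayed to runoff on both surfaces and air-dried for one hour before exposure.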
# [11] = test system: southern armyworm (Spodopetra eridania Cramer); experiment: Mite/insect screen, SAW; details: Spodoptera eridania, percent mortality, SAW, read-out: SAW RESULTS %; for mortality at 200 ppm: SM & MA RATE 200 PPM; for mortality at 400 ppm: SM & MA RATE 400 PPM
# Method in brief: as §1
SMILES,mortality at 12 ppm (corn rootworm),GRAY MOLD [1],APPL SCAB [2],POWD MDEW [3],LEAF SPOT [4],DOWN MDEW [5],RICE BLAST [6],LEAF BLOT [7],LEAF RUST [8],mortality at 200 ppm [9],mortality at 200 ppm [10],mortality at 200 ppm [11],mortality at 24 ppm (corn rootworm),mortality at 400 ppm [9],mortality at 400 ppm [10],mortality at 400 ppm [11]
"CCC(CNc1ccnc2c(F)cccc12)c1ccccc1 (centres unmarked) [Example 81, 8-fluoro-N-(2-phenylbutyl)-4-quinolinamine]",0%,- (0-19% control at 400 ppm),- (0-19% control at 400 ppm),+ (20-89% control at 400 ppm),+ (20-89% control at 400 ppm),+++ (90-100% control at 100 ppm),++ (90-100% control at 400 ppm),- (0-19% control at 400 ppm),++ (90-100% control at 400 ppm),0%,0%,0%,–,–,–,–
"Fc1cccc2c(NCCc3ccccc3Cl)ccnc12 [Example 82, N-[2-(2-chlorophenyl)ethyl]-8-fluoro-4-quinolinamine]",0%,- (0-19% control at 400 ppm),- (0-19% control at 400 ppm),+ (20-89% control at 400 ppm),+ (20-89% control at 400 ppm),+++ (90-100% control at 100 ppm),+++ (90-100% control at 100 ppm),+++ (90-100% control at 100 ppm),+++ (90-100% control at 100 ppm),0%,0%,0%,–,–,–,–
"Fc1cccc2c(NCCc3ccc(C(F)(F)F)cc3)ccnc12 [Example 83, 8-fluoro-N-[2-[4-(trifluoromethyl)phenyl]ethyl]-4-quinolinamine]",0%,+++ (90-100% control at 100 ppm),- (0-19% control at 400 ppm),+ (20-89% control at 400 ppm),+ (20-89% control at 400 ppm),++ (90-100% control at 400 ppm),++ (90-100% control at 400 ppm),- (0-19% control at 400 ppm),+++ (90-100% control at 100 ppm),0%,0%,0%,–,–,–,–
"COc1ccc(CCNc2ccnc3cc(Cl)ccc23)cc1 [Example 84, 7-chloro-N-[2-(4-methoxyphenyl)ethyl]-4-quinolinamine]",0%,- (0-19% control at 400 ppm),- (0-19% control at 400 ppm),+++ (90-100% control at 100 ppm),+ (20-89% control at 400 ppm),++ (90-100% control at 400 ppm),++ (90-100% control at 400 ppm),- (0-19% control at 400 ppm),++ (90-100% control at 400 ppm),0%,0%,10%,0%,0%,0%,0%
"Cc1ccc(CCNc2ccnc3c(Cl)cccc23)cc1 [Example 87, 8-chloro-N-[2-(4-methylphenyl)ethyl]-4-quinolinamine]",0%,- (0-19% control at 400 ppm),- (0-19% control at 400 ppm),- (0-19% control at 400 ppm),- (0-19% control at 400 ppm),+++ (90-100% control at 100 ppm),- (0-19% control at 400 ppm),- (0-19% control at 400 ppm),+ (20-89% control at 400 ppm),0%,0%,0%,0%,0%,0%,0%
